The target of data set [1] is Aldo-keto reductase family 1 member B1 (Rattus norvegicus, UniProt P07943). Type of data set: tissue-based, Lens of camera-type eye.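 Also: inhibition of aldose reductase enzyme activity, measured with DL-glyceraldehyde as the substrate; in other assays of this panel Not Active means under 50% inhibition at 10 µM.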
Data set [2] is described as follows: DRUGMATRIX: Sigma2 radioligand binding (ligand: [3H] Ifenprodil). It counts as cell membranes, Rattus norvegicus, Wistar, Brain, Membrane. The note with it: Not Active = under 50% inhibition at 10 µM.
The target of data set [3] is T1, Vasoactive intestinal polypeptide receptor 1 (Homo sapiens, UniProt P32241). Also: in other assays of this panel Not Active means under 50% inhibition at 10 µM.
T1 sequence (P32241 whole entry): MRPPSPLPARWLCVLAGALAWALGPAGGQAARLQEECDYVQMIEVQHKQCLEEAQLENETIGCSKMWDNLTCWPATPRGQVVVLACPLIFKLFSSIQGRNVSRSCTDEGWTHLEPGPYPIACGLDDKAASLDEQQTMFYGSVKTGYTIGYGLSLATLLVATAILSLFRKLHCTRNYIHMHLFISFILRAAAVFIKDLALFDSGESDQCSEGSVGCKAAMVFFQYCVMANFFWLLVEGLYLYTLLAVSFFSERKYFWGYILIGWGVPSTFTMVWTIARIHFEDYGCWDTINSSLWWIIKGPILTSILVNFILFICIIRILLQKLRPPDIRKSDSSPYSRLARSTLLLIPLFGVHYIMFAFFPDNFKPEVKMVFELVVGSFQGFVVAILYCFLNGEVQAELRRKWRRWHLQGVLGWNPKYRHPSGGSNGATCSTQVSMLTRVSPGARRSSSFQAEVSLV
It counts as cell membranes, Membrane. The following applies: ht-29.

In another data set the target is Melanocortin receptor 5 (Homo sapiens, UniProt P33032). It counts as cell membranes, HEK293, Membrane. The note with it: for Ki: read-out: Ki. As to all read-outs here: in other assays of this panel Not Active means under 50% inhibition at 10 µM.
Data set [4] is described as follows: DRUGMATRIX: Potassium Channel [KATP] radioligand binding (ligand: [3H] Glyburide). Type of data set: cell membranes, Membrane. The note with it: hit-t15; Not Active = under 50% inhibition at 10 µM.
Another data set deals with Cytochrome P450 2C19 (Homo sapiens, UniProt P33261). The note with it: bti-tn-5b1-4.
For the next data set, the target named is Cytochrome P450 2C9 (Homo sapiens, UniProt P11712). The note with it: bti-tn-5b1-4. Also: in other assays of this panel Not Active means under 50% inhibition at 10 µM.
Sequence of Cytochrome P450 2C9 (P11712 whole entry): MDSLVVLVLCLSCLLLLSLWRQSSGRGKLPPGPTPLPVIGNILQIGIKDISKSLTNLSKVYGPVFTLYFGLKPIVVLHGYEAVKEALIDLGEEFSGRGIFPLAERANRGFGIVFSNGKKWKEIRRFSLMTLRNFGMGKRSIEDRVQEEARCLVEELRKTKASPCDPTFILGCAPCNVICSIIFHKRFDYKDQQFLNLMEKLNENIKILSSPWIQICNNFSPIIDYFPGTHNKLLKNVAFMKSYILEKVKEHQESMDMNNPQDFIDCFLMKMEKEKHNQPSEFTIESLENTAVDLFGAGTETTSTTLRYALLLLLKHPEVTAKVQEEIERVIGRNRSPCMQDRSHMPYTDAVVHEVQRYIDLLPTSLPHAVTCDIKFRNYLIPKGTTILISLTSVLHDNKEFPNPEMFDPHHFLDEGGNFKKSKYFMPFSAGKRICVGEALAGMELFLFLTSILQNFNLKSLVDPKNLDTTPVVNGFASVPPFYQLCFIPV

Sequence of Melanocortin receptor 5 (P33032 whole entry): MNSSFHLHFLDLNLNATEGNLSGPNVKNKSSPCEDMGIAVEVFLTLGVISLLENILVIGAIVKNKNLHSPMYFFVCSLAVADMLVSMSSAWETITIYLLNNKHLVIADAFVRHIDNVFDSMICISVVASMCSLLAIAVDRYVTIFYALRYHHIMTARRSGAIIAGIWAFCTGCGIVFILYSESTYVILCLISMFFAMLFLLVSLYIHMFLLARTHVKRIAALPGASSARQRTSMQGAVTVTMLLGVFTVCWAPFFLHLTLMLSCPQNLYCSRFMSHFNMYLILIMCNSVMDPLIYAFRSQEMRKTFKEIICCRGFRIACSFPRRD
Sequence of Cytochrome P450 2C19 (P33261 whole entry): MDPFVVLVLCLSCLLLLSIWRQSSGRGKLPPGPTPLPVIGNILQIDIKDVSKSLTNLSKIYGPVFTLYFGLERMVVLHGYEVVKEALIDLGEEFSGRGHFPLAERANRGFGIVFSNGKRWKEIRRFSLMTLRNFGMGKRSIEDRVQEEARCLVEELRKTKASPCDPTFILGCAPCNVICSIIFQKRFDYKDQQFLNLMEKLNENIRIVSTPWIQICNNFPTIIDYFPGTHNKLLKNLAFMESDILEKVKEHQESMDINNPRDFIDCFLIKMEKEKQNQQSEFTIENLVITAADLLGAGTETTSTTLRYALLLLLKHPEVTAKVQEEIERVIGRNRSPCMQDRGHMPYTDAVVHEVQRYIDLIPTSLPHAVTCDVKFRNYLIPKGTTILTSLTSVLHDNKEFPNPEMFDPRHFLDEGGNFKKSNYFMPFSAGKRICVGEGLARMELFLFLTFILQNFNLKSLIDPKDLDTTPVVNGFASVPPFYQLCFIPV

As for `Cc1c(C)c2c(c(C)c1O)CCC(C)(CN1CCN(c3cc(N4CCCC4)nc(N4CCCC4)n3)CC1)O2` (centres undefined), the IC50 result (in data set [1]; in data set [2]; in data set [3]; at Melanocortin receptor 5 (hek293); in data set [4]) was “Not Active” in each case. Also, the Ki entry in data set [2] and in data set [4] was “Not Active” throughout.
Take `COc1ccc(CCN(C)CCCC(C#N)(c2ccc(OC)c(OC)c2)C(C)C)cc1OC` (centres undefined): the IC50 (usually the concentration at which inhibition is half-maximal) is “Not Active” in data set [1]; 2.82 µM in data set [2] (read-out: IC50); “Not Active” in data set [3]; “Not Active” at Melanocortin receptor 5 (hek293); “Not Active” in data set [4]; “Not Active” against Cytochrome P450 2C19. Besides, the inhibitory constant (Ki) (usually the equilibrium dissociation constant of an inhibitor or competing ligand from its target) in data set [2] (read-out: Ki) is 1.74 µM; in data set [4], “Not Active”; at Cytochrome P450 2C19, “Not Active”.
`CC(C)Cc1ccc([C@@H](C)C(=O)O)cc1` [(R)-IBUPROPHEN]: the IC50 entry (in data set [1]; in data set [2]; in data set [3]; against Melanocortin receptor 5 (hek293); in data set [4]; on Cytochrome P450 2C19) was “Not Active” in each case. The IC50 entry against Cytochrome P450 2C9 is listed as “Not Active”. Besides, the Ki entry (in data set [2]; in data set [4]; at Cytochrome P450 2C19; on Cytochrome P450 2C9) was “Not Active” in each case.
With `CN(C)CCOC(c1ccccc1)c1ccccc1` [DIPHENHYDRAMINE], the IC50 entry (in data set [1]; in data set [3]; on Melanocortin receptor 5 (hek293)) was “Not Active” each time.
For the compound `Clc1ccc(COC(Cn2ccnc2)c2ccc(Cl)cc2Cl)cc1` (centres undefined) [ECONAZOLE], the IC50 entry in data set [1] is “Not Active”; in data set [3], “Not Active”; on Melanocortin receptor 5 (read-out: IC50) it was 39.5 µM. For the same compound, the Ki on Melanocortin receptor 5 is 37.1 µM.
For `CCN(CC)CCOc1ccc(/C(=C(/Cl)c2ccccc2)c2ccccc2)cc1` [ENCLOMIPHENE], the IC50 result (in data set [1]; in data set [3]; against Melanocortin receptor 5 (hek293); on Cytochrome P450 2C19; against Cytochrome P450 2C9) was “Not Active” in each case. Further, the Ki entry at Cytochrome P450 2C19 and on Cytochrome P450 2C9 was “Not Active” in each case.
Regarding `Fc1ccc(C(c2ccc(F)cc2)N2CCN(C/C=C/c3ccccc3)CC2)cc1` [FLUNARIZINE], the IC50 result (in data set [1]; in data set [3]; at Melanocortin receptor 5 (hek293); on Cytochrome P450 2C19; against Cytochrome P450 2C9) was “Not Active” in each case. The inhibition constant Ki result at Cytochrome P450 2C19 and on Cytochrome P450 2C9 was “Not Active” each time.
As for `CNCCC(Oc1ccc(C(F)(F)F)cc1)c1ccccc1` (centres undefined) [FLUOXETINE], the IC50 result (in data set [1]; in data set [3]; against Melanocortin receptor 5 (hek293); at Cytochrome P450 2C19; on Cytochrome P450 2C9) was “Not Active” each time. Also, the Ki result on Cytochrome P450 2C19 and at Cytochrome P450 2C9 was “Not Active” throughout.
As for `Cc1ccc(NC(=O)c2ccc(CN3CCN(C)CC3)cc2)cc1Nc1nccc(-c2cccnc2)n1` [IMATINIB], the half-inhibitory concentration (IC50) result (in data set [1]; in data set [3]; at Melanocortin receptor 5 (hek293); at Cytochrome P450 2C19; on Cytochrome P450 2C9) was “Not Active” each time. Besides, the Ki result on Cytochrome P450 2C19 and at Cytochrome P450 2C9 was “Not Active” throughout.
As for `CC(C)Oc1ccc2c(=O)c(-c3ccccc3)coc2c1` [IPRIFLAVONE], the IC50 entry (in data set [1]; in data set [2]; in data set [3]; on Melanocortin receptor 5 (hek293); in data set [4]; at Cytochrome P450 2C19) was “Not Active” throughout. Besides, the IC50 entry against Cytochrome P450 2C9 was “Not Active”. Also, the Ki entry (in data set [2]; in data set [4]; on Cytochrome P450 2C19; on Cytochrome P450 2C9) was “Not Active” in each case.
As for `CC(C)NCC(O)c1ccc(O)c(O)c1` (centres undefined) [ISOPROTERENOL], the IC50 result (in data set [1]; in data set [2]; in data set [3]; on Melanocortin receptor 5 (hek293); in data set [4]; on Cytochrome P450 2C19) was “Not Active” each time. Further, the concentration for half-maximal inhibition (IC50) result against Cytochrome P450 2C9 is “Not Active”. Moreover, the Ki result (in data set [2]; in data set [4]; on Cytochrome P450 2C19; at Cytochrome P450 2C9) was “Not Active” in each case.
For the compound `CNC1(c2ccccc2Cl)CCCCC1=O` (centres undefined) [KETAMINE], the IC50 entry (in data set [1]; in data set [2]; in data set [3]; at Melanocortin receptor 5 (hek293); in data set [4]; against Cytochrome P450 2C19) was “Not Active” each time. In addition, the 50% inhibitory concentration (IC50) result against Cytochrome P450 2C9 was “Not Active”. In addition, the Ki entry (in data set [2]; in data set [4]; at Cytochrome P450 2C19; on Cytochrome P450 2C9) was “Not Active” each time.
For `N#Cc1ccc(C(c2ccc(C#N)cc2)n2cncn2)cc1` [LETROZOLE], the IC50 entry (in data set [1]; in data set [2]; in data set [3]; against Melanocortin receptor 5 (hek293); in data set [4]; against Cytochrome P450 2C19) was “Not Active” each time. In addition, the IC50 result at Cytochrome P450 2C9 is recorded as “Not Active”. The Ki result (in data set [2]; in data set [4]; on Cytochrome P450 2C19; at Cytochrome P450 2C9) was “Not Active” in each case.
`CCN(CC)CC(=O)Nc1c(C)cccc1C` [LIDOCAINE]: the IC50 entry (in data set [1]; in data set [2]; in data set [3]; on Melanocortin receptor 5 (hek293); in data set [4]) was “Not Active” in each case. Moreover, the Ki result in data set [2] and in data set [4] was “Not Active” each time.
Take `C[C@H]1C[C@@H]2[C@H]([C@@H](O)C[C@@]3(C)[C@H]2CC[C@]3(O)C(=O)CO)[C@@]2(C)C=CC(=O)C=C12` [METHYLPREDNISOLONE]: the IC50 result (in data set [1]; in data set [2]; in data set [3]; against Melanocortin receptor 5 (hek293); in data set [4]; at Cytochrome P450 2C9) was “Not Active” each time. Moreover, the Ki result (in data set [2]; in data set [4]; at Cytochrome P450 2C9) was “Not Active” throughout.
As to `CN[C@H]1CC[C@@H](c2ccc(Cl)c(Cl)c2)c2ccccc21` [SERTRALINE], the IC50 entry in data set [1] was “Not Active”; in data set [3], “Not Active”; on Melanocortin receptor 5 (read-out: IC50) it was 4.6 µM; against Cytochrome P450 2C9 it was “Not Active”. Further, the Ki on Melanocortin receptor 5 is 4.31 µM; on Cytochrome P450 2C9, “Not Active”.
Consider `O.O.O.O.O.O.[Cl-].[Cl-].[Sr+2]` [STRONTIUM CHLORIDE HEXAHYDRATE], for which the IC50 entry (in data set [1]; in data set [2]; in data set [3]; at Melanocortin receptor 5 (hek293); against Cytochrome P450 2C19; on Cytochrome P450 2C9) was “Not Active” in each case. The Ki entry (in data set [2]; on Cytochrome P450 2C19; at Cytochrome P450 2C9) was “Not Active” each time.
On to `NC(=O)N1C(=O)/C(=C(\O)c2cccs2)c2cc(Cl)ccc21` [TENIDAP], for which the IC50 result (in data set [1]; in data set [2]; in data set [3]; against Melanocortin receptor 5 (hek293); in data set [4]; at Cytochrome P450 2C19) was “Not Active” throughout. In addition, the Ki entry (in data set [2]; in data set [4]; on Cytochrome P450 2C19) was “Not Active” throughout.
Take `COc1cc2nc(N3CCN(C(=O)C4CCCO4)CC3)nc(N)c2cc1OC` (centres undefined) [TERAZOSIN]: the IC50 result (in data set [1]; in data set [2]; in data set [3]; on Melanocortin receptor 5 (hek293); against Cytochrome P450 2C19; against Cytochrome P450 2C9) was “Not Active” in each case. In addition, the Ki entry (in data set [2]; at Cytochrome P450 2C19; on Cytochrome P450 2C9) was “Not Active” throughout.
For the compound `CCCCNc1ccc(C(=O)OCCN(C)C)cc1` [TETRACAINE], the IC50 entry (in data set [1]; in data set [2]; in data set [3]; against Melanocortin receptor 5 (hek293); in data set [4]) was “Not Active” throughout. Moreover, the Ki entry in data set [2] and in data set [4] was “Not Active” each time.
In the case of `Cn1c(=O)c2nc[nH]c2n(C)c1=O.O` [THEOPHYLLINE], the IC50 result (in data set [1]; in data set [2]; in data set [3]; at Melanocortin receptor 5 (hek293); in data set [4]; on Cytochrome P450 2C19) was “Not Active” in each case. The Ki entry (in data set [2]; in data set [4]; at Cytochrome P450 2C19) was “Not Active” in each case.
With `Clc1ccccc1CN1CCc2sccc2C1` [TICLOPIDINE], the IC50 entry in data set [1] was “Not Active”; in data set [2] (read-out: IC50), 3.26 µM; in data set [3], “Not Active”; against Melanocortin receptor 5 (hek293) it was “Not Active”; in data set [4], “Not Active”; on Cytochrome P450 2C9 it was “Not Active”. Moreover, the Ki in data set [2] (read-out: Ki) was 2.01 µM; in data set [4], “Not Active”; at Cytochrome P450 2C9, “Not Active”.
For `O=C(Nc1ccc(Br)cc1)c1cc(Br)cc(Br)c1O` [TRIBROMSALAN], the IC50 result (in data set [1]; in data set [2]; in data set [3]; on Melanocortin receptor 5 (hek293); in data set [4]; at Cytochrome P450 2C19) was “Not Active” in each case. In addition, the Ki entry (in data set [2]; in data set [4]; at Cytochrome P450 2C19) was “Not Active” each time.

Values taken from ChEMBL document CHEMBL1909046, “DrugMatrix in vitro pharmacology data”.
